# Source: patent US20160158330A1, “METHODS OF PREPARATION AND COMPOSITION OF PEPTIDE CONSTRUCTS USEFUL FOR TREATMENT OF RHEUMATOID ARTHRITIS” (CEL-SCI CORPORATION, priority 2013, published 2016)
# “Also recorded” adds a separate entry of the source. Where no end group is shown, it is not given here. [ ]: non-standard residue; d: D form. Cit = NC(=O)NCCC[C@H](N)C(=O)O
# Assays:
# [1] = system: splenic T cells from BALB/c mice with PGIA; assay: Splenic T cell proliferation, [3H]thymidine incorporation (stimulation index); type: cell-based; details: 5 μM peptide, splenocytes of PGIA BALB/c mice, p<0.05
# Protocol: (§1) FIG. 3 illustrates T cell proliferation and T cell polarization (TH1:TH2) induced by P70, DerG-PG70 and J-PG70 peptides (Panel A). […] Panel B) T cell polarization by Th1:Th2 cytokine (IFNγ:IL-4) ratios. […] It is noted that these two responses are mutually exclusive. Amounts of IFNγ and IL-4 in culture fluid samples were determined by ELISA (enzyme-linked immunosorbent assay, a common test that uses antibodies and color change to measure protein amounts). The “baseline” value for this ratio, i.e., the value of this ratio in untreated (unpolarized) T cells, is around 3.2 (the black bar, “None,” in FIG. 3B). An increased ratio indicates relatively more IFNγ and/or less IL-4, which in turn indicates a shift towards a Th1 response and away from a Th2 response. A decreased value (below 3.2) indicates relatively more IL-4 and/or less IFNγ and thus a shift towards a Th2 response and away from a Th1 response. Cells were isolated from spleens by gently pushing the organ through a wire cell sieve mesh screen with a sterile 5 cc syringe plunger. The spleens were from BALB/c retired female breeder mice with PGIA (n=3), cultured individually for 5 days in the absence (None) or presence of the different designated peptides (5 μM each) on PG protein (10 m). As has been previously shown, the only cell type incorporating tritiated [^3H]thymidine into DNA are T cells. Therefore, proliferation of splenic T cells was measured in 96 well plates by use of [^3H]thymidine ([…]; specific activity: 2 Ci/mmol, Amersham, Arlington Heights, Ill.) incorporation from day 4 to 5 and expressed as a stimulation index based on the counts per minute normalized to the untreated control (panel A). Treatments were done in triplicate wells for the proliferation assay, and identical triplicate wells were used to harvest culture fluid at 48 hours for cytokine assays. The amounts of IFNγ (a Th1 cytokine) and IL-4 (a Th2 cytokine) in the media of the same cultures were determined by ELISA and expressed as ratios.
# (§2) The effect of L.E.A.P.S. conjugates on T cell responses is shown in this example. J-PG70 conjugates modulated the proliferation of T cells isolated from spleen or lymph-node cells from wild type BALB/c mice with PGIA or naïve, PG-TCR-transgenic BALB/c mice.
# IFNγ:IL-4 = assay: T cell polarization by Th1:Th2 cytokine (IFNγ:IL-4) ratio, ELISA; type: cell-based; details: 5 μM peptide, splenocytes of PGIA BALB/c mice; baseline ratio around 3.2
# Protocol: as §1, §2
# [2] = system: proteoglycan-induced arthritis (PGIA); assay: L.E.A.P.S. peptide vaccination of PGIA mice, AI scores; type: in vivo; details: n=8 mice/group
# Source text: In this example, in vivo experiments of efficacy and protection are shown in FIG. 4, which indicates groups from a first study of efficacy of vaccine candidates, and related controls.
# [3] = system: ankle (tibio-talar) joints; assay: Histology of ankle (tibio-talar) joints of vaccinated PGIA mice; type: in vivo; details: PGIA mice 36 days after treatment, conjugate in adjuvant
# Source text: Histology of ankle (tibio-talar) joints are shown in (A) normal mice and in (B-D) PGIA mice 36 days after undergoing treatment with L.E.A.P.S. conjugates. The normal joint is characterized by smooth cartilage surfaces on the tibia (Ti) and talus (Ta), inflammatory cell-free joint cavity (JC) and synovial tissue (ST). The ST is lined by a thin layer of cells and contains mainly fat tissue. Ankle joints from mice with PGIA shown in (B), treated with PBS in adjuvant, show evidence of synovial thickening (hyperplasia), inflammatory cell accumulation in the JC and ST, as well as partial erosion of cartilage surface (arrows).
# (§3) The joint sections were stained with hematoxylin and eosin. One representative section per group is shown. […] Protection was associated with reduced PG-specific T cell proliferation.
# spleen cells = assay: PG-specific spleen cell proliferation of vaccinated PGIA mice (in vitro assay); type: in vivo; details: cells from vaccinated PGIA mice, in vitro stimulation
# Source text: as §3
# [4] = system: Th1, Th2, Th17, and regulatory T cells (Tregs); assay: Proportions of Th1, Th2, Th17 and Tregs in spleen cell cultures from vaccinated mice (flow cytometry); type: in vivo; details: spleen cell cultures from vaccinated PGIA mice, n=4 mice/group
# Protocol: The proportions of Th1, Th2, Th17, and regulatory T cells (Tregs) in spleen cell cultures from the vaccinated mice were determined by flow cytometry. Protection was associated with decreased proportions of Th1 and Th17 cells, and increases in Th2 cells and Tregs (p<0.05-0.001, Fisher's LSD test; n=4 mice/group). […] This is similar to the pattern of cytokines secreted by the cells.
# In this example, the effects of L.E.A.P.S.-PG peptide conjugate vaccination on the proportions of splenic Th1, Th2, Th17, and regulatory T cells (Tregs) are shown in FIG. 8. The proportions of Th1, Th2, Th17, and regulatory T cells (Tregs) in spleen cell cultures from the vaccinated mice were determined by flow cytometry. Protection was associated with decreased proportions of Th1 and Th17 cells, and increases in Th2 cells and Tregs (p<0.05-0.001, Fisher's LSD test; n=4 mice/group).
# IL-12p40 = assay: Intracellular expression of IL-12p40 by DCs (flow cytometry); type: cell-based, BALB/c mice
# Protocol: FIG. 2 illustrates the effects of L.E.A.P.S.-PG conjugates on intracellular expression of IL-12p40 by DCs. DCs from BALB/c female retired breeder normal mice (n=3), having no PGIA disease (generated from bone marrow as described under FIG. 1) were incubated for 24 hours with the indicated peptides (5 μM each) at a cell density of 1×10^6 DCs/mL. DCs not receiving treatment (None) or treated with LPS (1 μg/ml) served as negative and positive controls, respectively. At the end of treatment, DCs were harvested and incubated with 1 μg/mL monensin (GolgiStop, BD Biosciences) for 4 hours to prevent cytokine secretion. Surface staining of DCs was done with fluoresecein isothiocyanate-(FITC) conjugated anti-CD11c antibody. The cells were then fixed and permeabilized using BD Biosciences' Cytofix/Cytoperm Kit. Intracellular IL-12 was detected with a phycoerythrin-(PE) labeled antibody to mouse IL-12p40 (eBioscience). Flow cytometry was carried out as described above. The number of IL-12p40+DCs was determined by gating on CD11c+ cells, and the results expressed as the % of IL-12p40+ of all CD11c+DCs. […] The error bars represent ±SEM.
# Bone marrow-derived DCs = assay: DC maturation in vitro: MHC class II and CD86 expression by flow cytometry; type: cell-based; details: 5 μM peptide, 24 hours, bone marrow-derived DCs of naïve BALB/c mice
# Protocol: FIG. 1 illustrates the effects of PG and L.E.A.P.S.-PG conjugates on DC maturation as indicated by MHC class II and CD86 expression (left and right panels respectively) following treatment (24 hours). […] MFI: mean fluorescence intensity (arbitrary units). […]
# To generate DCs, the bone marrow cells were cultured for 9 days in the presence of recombinant mouse granulocyte-macrophage colony stimulating factor (GM-CSF, Sigma-Aldrich, St Louis, Mo.) at a dose of 200 U/ml (Egelston C., Kurko J., Besenyei T. et al. (2012) Suppression of dendritic cell maturation and T cell proliferation by synovial fluid myeloid cells from mice with autoimmune arthritis. Arthritis Rheum 64: 3179-3188). […] After the 24-hour culture with the indicated stimulants, the cells were washed with PBS containing 0.5% bovine serum albumin and 0.01% sodium azide (fluorescence activated cell sorter (FACS) buffer). […]
Substance,T cell proliferation rate (stimulation index) versus untreated [1],"T cell polarization, Th1:Th2 cytokine (IFNγ:IL-4) ratio versus untreated (IFNγ:IL-4)",Day from which difference from the other groups became statistically significant ([2]; p<0.05 repeated measures ANOVA) [days],Disease severity (AI scores) ([2]; vaccine in adjuvant),"Histology of ankle joints (synovial hyperplasia, cell infiltration, cartilage erosion) [3]",PG-specific spleen cell proliferation (spleen cells),"Immune deviation (proportions of Th1, Th2, Th17, Tregs) [4]","% of IL-12p40+ of all CD11c+ DCs (IL-12p40; peptide 5 μM, 24 hours, untreated group 3.8%) [%]",DC maturation (MHC class II and CD86 surface marker expression) (Bone marrow-derived DCs),IL-12 intracellular expression in matured DCs (IL-12p40; 24 hours of incubation)
"ATEGRVRVNSAYQDK (listed as Homo Sapiens) [PG70, proteoglycan aggrecan (G1) residues 70-84, reference compound]",significantly increased,significantly skewed towards a Th1 response,–,–,–,–,–,–,–,–
DGQEEKAGVVSTGLIGGGATEGRVRVNSAYQDK (Heteroconjugate Construct) [DerG-PG70],no significant difference,significant shift towards Th2; also recorded: significantly skewed towards a Th2 response,~12,dramatically suppressed; also recorded: therapeutically effective,"only mild ST hyperplasia as shown in (D), but no cell infiltration or cartilage damage",much less responsive,inducing immune deviation in favor of Th2 and Treg cells,–,–,–
DLLKNGERIEKVEGGGATEG(Cit)VRVNSAYQDK (DLLKNGERIEKVEGGGATEG[Cit]VRVNSAYQDK) [J-PG70Cit],significantly increased,significant shift towards Th1; also recorded: significantly skewed towards a Th1 response,–,–,–,–,–,7.3,–,–
"DLLKNGERIEKVEGGGATEGRVRVNSAYQDK (Heteroconjugate Construct) [J-PG70, L.E.A.P.S. heteroconjugate of ICBL Peptide J linked to PG70 through a triglycine linker]",higher T cell proliferation as compared to PG70; also recorded: significantly increased,significantly skewed towards a Th1 response,–,–,–,–,–,–,led to matured dendritic cells,modulated the IL-12 intracellular expression
